The record followed here is the supplement of paper PMC11368000.

One assay relates to 1434 (donor line of iPSC-derived cardiomyocytes). Briefly: POD (EC95) for loss of peak frequency (asystole) vs vehicle; higher = less potent (higher point of departure). The conditions noted are these: exposure time: 90 min. The procedure: (§1)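 Human iPSC-derived cardiomyocytes from 16 donors were exposed for 90 min at 37 °C to each PFAS at 0.1, 1, 10 and 100 µM in 0.5% DMSO, 384-well plates. Kinetic Ca2+ flux (FLIPR) and Hoechst nuclei counts were normalised to vehicle wells and fitted with a hierarchical Bayesian Hill model to give donor-specific PODs: EC05 for beat-rate increase or decrease and for decay-to-rise ratio increase (QT proxy), EC95 for peak-frequency loss (asystole), EC10 for total cell number loss. 0.03 µM is the lower bound.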
Consider `O=C(O)CCC(F)(F)C(F)(F)C(F)(F)C(F)(F)C(F)(F)C(F)(F)C(F)(F)F` [3-Perfluoroheptylpropanoic_acid], for which the POD vs vehicle was found to be 90.9 µM.

`O=C(O)CCC(F)(F)C(F)(F)C(F)(F)F` [3:3 Fluorotelomer carboxylic acid] showed a POD vs vehicle above 100 µM.

Regarding `O=C(CC(=O)C(F)(F)C(F)(F)F)C(F)(F)F` [3H,3H-Perfluoro-2,4-hexanedione], the POD vs vehicle was determined as 78.3 µM.

The compound `OCCC(F)(F)C(F)(F)C(F)(F)C(F)(F)F` [4:2 Fluorotelomer alcohol] returned a POD vs vehicle above 100 µM.

`O=S(=O)(O)CCC(F)(F)C(F)(F)C(F)(F)C(F)(F)F` [4:2 Fluorotelomer sulfonic acid]: the POD vs vehicle is above 100 µM.

With `OCC(F)(F)C(F)(F)C(F)(F)C(F)(F)C(F)(F)C(F)(F)F` [6:1 Fluorotelomer alcohol], the POD vs vehicle was determined as 75.4 µM.

Compound `OCCC(F)(F)C(F)(F)C(F)(F)C(F)(F)C(F)(F)C(F)(F)F` [6:2 Fluorotelomer alcohol] registered a POD vs vehicle above 100 µM.

As to `O=S(=O)(O)CCC(F)(F)C(F)(F)C(F)(F)C(F)(F)C(F)(F)C(F)(F)F` [6:2 Fluorotelomer sulfonic acid], the POD vs vehicle was above 100 µM.

`OCCC(F)(F)C(F)(F)C(F)(F)C(F)(F)C(F)(F)C(F)(F)C(F)(F)C(F)(F)F` [8:2 Fluorotelomer alcohol] yielded a POD vs vehicle above 100 µM.

In turn, `CN(CCO)S(=O)(=O)C(F)(F)C(F)(F)C(F)(F)C(F)(F)C(F)(F)C(F)(F)C(F)(F)C(F)(F)F` [N-Methyl-N-(2-hydroxyethyl)perfluorooctanesulfonamide] returned a POD vs vehicle above 100 µM.

In another assay the test system is 30171 (donor line of iPSC-derived cardiomyocytes). The assay is described as above. The note with it: exposure time: 90 min. How it is done:
as §1
Take `NC(=O)C(F)(F)C(F)(F)C(F)(F)C(F)F`: the POD vs vehicle was above 100 µM.

Regarding `OCC(O)CC(F)(F)C(F)(F)C(F)(F)C(F)(F)C(F)(F)C(F)(F)C(F)(F)C(F)(F)F` (stereo not given) [1-(Perfluorofluorooctyl)propane-2,3-diol], the POD vs vehicle was above 100 µM.

Take `CC(O)C(F)(F)C(F)(F)F` (stereo not given) [1-Pentafluoroethylethanol]: the POD vs vehicle was above 100 µM.

On to `OCC(F)(F)C(F)(F)C(F)(F)C(F)F` [1H,1H,5H-Perfluoropentanol], for which the POD vs vehicle is above 100 µM.

Consider `O=S(=O)(OCC(F)(F)F)C(F)(F)C(F)(F)C(F)(F)C(F)(F)F` [2,2,2-Trifluoroethyl_perfluorobutanesulfonate], for which the POD vs vehicle was above 100 µM.

For the compound `O=C(O)C(F)(F)C(F)(F)C(F)F` [2,2,3,3,4,4-Hexafluorobutanoic_acid], the POD vs vehicle is above 100 µM.

Compound `NC(O)(C(F)(F)F)C(F)(F)F` [2-Aminohexafluoropropan-2-ol] returned a POD vs vehicle above 100 µM.

Take `O=C(O)CCC(F)(F)C(F)(F)C(F)(F)C(F)(F)C(F)(F)F` [2H,2H,3H,3H-Perfluorooctanoic_acid]: the POD vs vehicle amounted to 71.8 µM.

In the case of `O=C(O)C=C(C(F)(F)F)C(F)(F)F` [3,3-Bis(trifluoromethyl)-2-propenoic_acid], the POD vs vehicle is above 100 µM.

The compound `O=C(O)C=CC(F)(C(F)(F)F)C(F)(F)F` [3-(Perfluoroisopropyl)-2-propenoic_acid] registered a POD vs vehicle above 100 µM.

Take `O=C(O)CCC(F)(F)C(F)(F)C(F)(F)C(F)(F)C(F)(F)C(F)(F)C(F)(F)F` [3-Perfluoroheptylpropanoic_acid]: the POD vs vehicle was above 100 µM.

`O=C(O)CCC(F)(F)C(F)(F)C(F)(F)F` [3:3 Fluorotelomer carboxylic acid]: the POD vs vehicle is above 100 µM.

`O=C(CC(=O)C(F)(F)C(F)(F)F)C(F)(F)F` [3H,3H-Perfluoro-2,4-hexanedione]: the POD vs vehicle was found to be 79.9 µM.

As for `OCCC(F)(F)C(F)(F)C(F)(F)C(F)(F)F` [4:2 Fluorotelomer alcohol], the POD vs vehicle is above 100 µM.

Take `O=S(=O)(O)CCC(F)(F)C(F)(F)C(F)(F)C(F)(F)F` [4:2 Fluorotelomer sulfonic acid]: the POD vs vehicle is above 100 µM.

In turn, `OCC(F)(F)C(F)(F)C(F)(F)C(F)(F)C(F)(F)C(F)(F)F` [6:1 Fluorotelomer alcohol] yielded a POD vs vehicle of 80.8 µM.

Compound `OCCC(F)(F)C(F)(F)C(F)(F)C(F)(F)C(F)(F)C(F)(F)F` [6:2 Fluorotelomer alcohol] showed a POD vs vehicle above 100 µM.

Consider `O=S(=O)(O)CCC(F)(F)C(F)(F)C(F)(F)C(F)(F)C(F)(F)C(F)(F)F` [6:2 Fluorotelomer sulfonic acid], for which the POD vs vehicle is above 100 µM.

`OCCC(F)(F)C(F)(F)C(F)(F)C(F)(F)C(F)(F)C(F)(F)C(F)(F)C(F)(F)F` [8:2 Fluorotelomer alcohol] registered a POD vs vehicle above 100 µM.

`CN(CCO)S(=O)(=O)C(F)(F)C(F)(F)C(F)(F)C(F)(F)C(F)(F)C(F)(F)C(F)(F)C(F)(F)F` [N-Methyl-N-(2-hydroxyethyl)perfluorooctanesulfonamide] had a POD vs vehicle of 69.7 µM.

A further assay concerns 1392 (donor line of iPSC-derived cardiomyocytes). The assay is described as above. The conditions noted are these: exposure time: 90 min. How it is done: as §1
In turn, `NC(=O)C(F)(F)C(F)(F)C(F)(F)C(F)F` gave a POD vs vehicle above 100 µM.

With `OCC(O)CC(F)(F)C(F)(F)C(F)(F)C(F)(F)C(F)(F)C(F)(F)C(F)(F)C(F)(F)F` (stereo not given) [1-(Perfluorofluorooctyl)propane-2,3-diol], the POD vs vehicle is above 100 µM.

Regarding `CC(O)C(F)(F)C(F)(F)F` (stereo not given) [1-Pentafluoroethylethanol], the POD vs vehicle is above 100 µM.

The compound `OCC(F)(F)C(F)(F)C(F)(F)C(F)F` [1H,1H,5H-Perfluoropentanol] came in with a POD vs vehicle above 100 µM.

The compound `O=S(=O)(OCC(F)(F)F)C(F)(F)C(F)(F)C(F)(F)C(F)(F)F` [2,2,2-Trifluoroethyl_perfluorobutanesulfonate] returned a POD vs vehicle above 100 µM.

In turn, `O=C(O)C(F)(F)C(F)(F)C(F)F` [2,2,3,3,4,4-Hexafluorobutanoic_acid] registered a POD vs vehicle above 100 µM.

On to `NC(O)(C(F)(F)F)C(F)(F)F` [2-Aminohexafluoropropan-2-ol], for which the POD vs vehicle was above 100 µM.

In turn, `O=C(O)CCC(F)(F)C(F)(F)C(F)(F)C(F)(F)C(F)(F)F` [2H,2H,3H,3H-Perfluorooctanoic_acid] came in with a POD vs vehicle of 73 µM.

In the case of `O=C(O)C=C(C(F)(F)F)C(F)(F)F` [3,3-Bis(trifluoromethyl)-2-propenoic_acid], the POD vs vehicle is above 100 µM.

Take `O=C(O)C=CC(F)(C(F)(F)F)C(F)(F)F` [3-(Perfluoroisopropyl)-2-propenoic_acid]: the POD vs vehicle is above 100 µM.

The compound `O=C(O)CCC(F)(F)C(F)(F)C(F)(F)C(F)(F)C(F)(F)C(F)(F)C(F)(F)F` [3-Perfluoroheptylpropanoic_acid] yielded a POD vs vehicle above 100 µM.

`O=C(O)CCC(F)(F)C(F)(F)C(F)(F)F` [3:3 Fluorotelomer carboxylic acid] showed a POD vs vehicle above 100 µM.

In turn, `O=C(CC(=O)C(F)(F)C(F)(F)F)C(F)(F)F` [3H,3H-Perfluoro-2,4-hexanedione] showed a POD vs vehicle above 100 µM.

Take `OCCC(F)(F)C(F)(F)C(F)(F)C(F)(F)F` [4:2 Fluorotelomer alcohol]: the POD vs vehicle is above 100 µM.

`O=S(=O)(O)CCC(F)(F)C(F)(F)C(F)(F)C(F)(F)F` [4:2 Fluorotelomer sulfonic acid] showed a POD vs vehicle above 100 µM.

In the case of `OCC(F)(F)C(F)(F)C(F)(F)C(F)(F)C(F)(F)C(F)(F)F` [6:1 Fluorotelomer alcohol], the POD vs vehicle is above 100 µM.

As for `OCCC(F)(F)C(F)(F)C(F)(F)C(F)(F)C(F)(F)C(F)(F)F` [6:2 Fluorotelomer alcohol], the POD vs vehicle was above 100 µM.

In the case of `O=S(=O)(O)CCC(F)(F)C(F)(F)C(F)(F)C(F)(F)C(F)(F)C(F)(F)F` [6:2 Fluorotelomer sulfonic acid], the POD vs vehicle was above 100 µM.

`OCCC(F)(F)C(F)(F)C(F)(F)C(F)(F)C(F)(F)C(F)(F)C(F)(F)C(F)(F)F` [8:2 Fluorotelomer alcohol] registered a POD vs vehicle above 100 µM.

In turn, `CN(CCO)S(=O)(=O)C(F)(F)C(F)(F)C(F)(F)C(F)(F)C(F)(F)C(F)(F)C(F)(F)C(F)(F)F` [N-Methyl-N-(2-hydroxyethyl)perfluorooctanesulfonamide] yielded a POD vs vehicle above 100 µM.
